“And” between values parts separate entries of the source, which are not always exact repeats. Identical values can stand only once.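 Following 48 hours of exposure in 96-well plates, responses at five concentrations were used to interpolate endpoints linearly. The concentration for 50% growth inhibition is given as GI50. TGI denotes the concentration required for complete inhibition of growth.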
Columns and labels:
Test in all cases: inhibition of tumour cell growth, NCI panel, 48 h
[1] = test system: 786-0 renal
[2] = test system: HCT-15 colon
[3] = test system: LOX IMVI melanoma
[4] = test system: M14 melanoma
[5] = test system: MDA-MB-231 breast
[6] = test system: NCI/ADR-RES ovarian
[7] = test system: OVCAR-4 ovarian
[8] = test system: PC-3 prostate
[9] = test system: RPMI-8226 leukemia
[10] = test system: SF-268 CNS
[11] = test system: SF-539 CNS
[12] = test system: SW-620 colon
[13] = test system: UACC-257 melanoma

SMILES	TGI [1]	TGI [2]	TGI [3]	TGI [4]	TGI [5]	TGI [6]	TGI [7]	TGI [8]	TGI [9]	TGI [10]	TGI [11]	TGI [12]	TGI [13]	GI50 [2] [µM]	GI50 [5] [µM]	GI50 [6] [µM]	GI50 [10] [µM]	GI50 [12] [µM]	GI50 [13] [µM]
COc1ccc(-n2c3c(c4cc(O)ccc42)C(=O)c2ccccc2C3=O)cc1	11.5 µM	> 100 µM	58 µM	> 100 µM	13.6 µM	24.9 µM	> 100 µM	87.3 µM	> 100 µM	14.8 µM	11.5 µM	> 100 µM	> 100 µM	–	–	–	–	–	–
C[C@H]1C(OCCOC2O[C@@H]3O[C@@]4(C)CC[C@H]5[C@H](C)CCC([C@H]2C)[C@@]35O4)O[C@@H]2O[C@@]3(C)CC[C@H]4[C@H](C)CCC1[C@@]24O3 (stereo partly specified)	> 100 µM	> 100 µM	57.5 µM	> 100 µM	75.1 µM	> 100 µM	> 100 µM	> 100 µM	> 100 µM	> 100 µM	> 100 µM	> 100 µM	> 100 µM	–	–	–	–	–	–
CN(C)CCOC1(Cc2ccc(Cl)cc2Cl)CCC(C(C)(C)C)CC1 (stereo unspecified)	3.33 µM and 2.98 µM	3.44 µM and 3.06 µM	2.97 µM and 3.06 µM	3.25 µM and 3.11 µM	8.16 µM and 3.34 µM	4.52 µM and 3.12 µM	3.87 µM and 3.85 µM	3.68 µM and 4.1 µM	4.92 µM and 5.42 µM	7.89 µM and 6.85 µM	14.5 µM and 3.46 µM	3.84 µM and 4.78 µM	3.75 µM and 3.24 µM	1.57	3.39	1.99	2.28	1.73	1.64
COc1cccc(-c2cccc(SC)n2)n1	88.3 µM	> 100 µM	> 100 µM	> 100 µM	> 100 µM	> 100 µM	> 100 µM	> 100 µM	78.1 µM	–	> 100 µM	> 100 µM	98.9 µM	–	–	–	–	–	–
CO[C@@](c1ccccc1)(c1nc(C#N)c(N)o1)C(F)(F)F	> 100 µM	> 100 µM	> 100 µM	> 100 µM	> 100 µM	> 100 µM	> 100 µM	> 100 µM	> 100 µM	–	> 100 µM	> 100 µM	> 100 µM	–	–	–	–	–	–
N#CC1=C(C#N)/C(=C(\C#N)C(C#N)C#N)N=C1N	> 100 µM	64.3 µM	55.8 µM	34.3 µM	> 100 µM	> 100 µM	> 100 µM	> 100 µM	> 81.3 µM	> 100 µM	54.5 µM	> 100 µM	51.7 µM	–	–	–	–	–	–
COC1C=C(NCC2(CO)CCC2)NC(N)=N1 (stereo unspecified)	> 100 µM	> 100 µM	> 100 µM	> 100 µM	> 100 µM	> 100 µM	> 100 µM	> 100 µM	> 100 µM	> 100 µM	–	> 100 µM	> 100 µM	–	–	–	–	–	–
O=C1/C(=C/c2ccc(Cl)cc2)NC(=S)N1CN1CCOCC1	> 100 µM	> 100 µM	> 100 µM	> 100 µM	> 100 µM	> 100 µM	> 100 µM	> 100 µM	> 100 µM	> 100 µM	–	> 100 µM	> 100 µM	–	–	–	–	–	–
